Experimental data taken from patent US12569502B2, “Use of bile acids and derivatives thereof in preparation of GPR39 agonist” (PEKING UNIVERSITY, priority 2019, dated 2026).
Read-outs that look alike come from different tables or passages of the source.

Key:
[1] = target: T1, GPR39 receptors on m39-20 cell lines (Mus musculus, UniProt Q5U431, T447P); assay: FLIPR calcium imaging on m39-20 cell lines stably expressing murine-derived GPR39; format: cell-based; details: for intracellular calcium signals in m39-20 cell lines: FIG. 1
T1 construct: P2A-mCherry (C); expressed in transfected cells
T1 sequence (Q5U431 1-456 T447P): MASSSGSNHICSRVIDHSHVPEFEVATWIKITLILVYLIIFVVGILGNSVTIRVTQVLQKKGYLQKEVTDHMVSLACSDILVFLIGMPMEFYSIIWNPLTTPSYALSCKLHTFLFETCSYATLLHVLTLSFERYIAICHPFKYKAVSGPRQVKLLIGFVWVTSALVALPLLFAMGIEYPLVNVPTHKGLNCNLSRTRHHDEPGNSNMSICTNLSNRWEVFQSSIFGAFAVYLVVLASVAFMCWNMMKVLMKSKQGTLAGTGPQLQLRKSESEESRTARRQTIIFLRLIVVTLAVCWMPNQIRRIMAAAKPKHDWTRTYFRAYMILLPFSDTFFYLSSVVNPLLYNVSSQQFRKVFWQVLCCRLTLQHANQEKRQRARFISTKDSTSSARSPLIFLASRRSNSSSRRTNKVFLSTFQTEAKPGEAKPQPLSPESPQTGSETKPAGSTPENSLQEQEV
Excerpt: Intracellular calcium imaging is a routine technique to study cell functions, the basic principle of which is to detect the concentration of the calcium ion in tissues or cells using a calcium indicator, thereby reflecting certain reactions in the tissues or cells. In the present application, the intracellular calcium released from a cell line that stably or transiently expresses GPR39 is detected using Fluo8-AM, a calcium fluorescent indicator, so as to determine the activation of the GPR39 receptor by the bile acid and derivative thereof.
HEK293T cells (purchased from ATCC) were seeded in a 6-well plate (coming Co.) at an appropriate density (about 0.5-2×10^5/well). When the cell density reached above 30%, the plasmid PLVXK-mGPR39-P2A-mCherry was transfected with Lipofectamine 3000 (Invitrogen) at a concentration of 2 μg per well. The cells were passaged 24 hours after transfection, the puromycin (gibco) was added into the medium at a concentration of 2 μg/mL for antibiotic screening of cells. After 2-4 days of continuous screening, the cells screened for puromycin resistance were trypsinized and screened by flow cytometry for monoclones with red fluorescence. And these monoclones were seeded in a 96-well plate and cultured in a medium without puromycin for around 10 days. Cell colonies with red fluorescence were sorted under a fluorescence microscope, trypsinized and then passaged and expanded in a 6-well plate. Cell lines m39-20 stably expressing murine-derived GPR39 were obtained through the above methods.
Calcium dye Fluo8-AM (ATT bioquest Co.) was dissolved in DMSO solvent to formulate a stock solution of 1 μg/μL. […] After then, the calcium dye working solution was replaced with the 4K solution (50 μL per well), and acclimated for 5 min at room temperature for the subsequent calcium imaging experiment.
Bile acids and derivatives thereof as listed in Table 1 below were dissolved in dimethyl sulfoxide (DMSO, Sigma Co.) solvent to formulate a stock solution of 50 mM, which was stored at −20° C. During calcium imaging with FLIPR, the drug was diluted with the above 4K solution into a working concentration of 400 μM, and packaged into another 96-well plate. […] The instrument parameters were set so that 50 μL of the drug solution may be added into the culture wells within 2 s. The fluorescence recording result within the first 30 seconds was used as the baseline value. The FLIPR robot arm was programmed to automatically add bile acids and derivatives thereof into the cell sample culture wells at the 31st second. 1% of DMSO solvent was used as the blank control.
After that, the calcium dye working solution was replaced with a 4K solution containing 4 μM zinc ions (50 μL per well), followed by acclimation for 5 min at room temperature.

[2] = target: T2, human GPR39 receptors on human GPR39-2 cell lines (Homo sapiens, UniProt O43194); assay: FLIPR calcium imaging on human GPR39-2 cell line stably expressing human GPR39; format: cell-based; details: for EC50: human GPR39-2 cells
T2 construct: P2A-mCherry (C)
T2 sequence (O43194 1-453): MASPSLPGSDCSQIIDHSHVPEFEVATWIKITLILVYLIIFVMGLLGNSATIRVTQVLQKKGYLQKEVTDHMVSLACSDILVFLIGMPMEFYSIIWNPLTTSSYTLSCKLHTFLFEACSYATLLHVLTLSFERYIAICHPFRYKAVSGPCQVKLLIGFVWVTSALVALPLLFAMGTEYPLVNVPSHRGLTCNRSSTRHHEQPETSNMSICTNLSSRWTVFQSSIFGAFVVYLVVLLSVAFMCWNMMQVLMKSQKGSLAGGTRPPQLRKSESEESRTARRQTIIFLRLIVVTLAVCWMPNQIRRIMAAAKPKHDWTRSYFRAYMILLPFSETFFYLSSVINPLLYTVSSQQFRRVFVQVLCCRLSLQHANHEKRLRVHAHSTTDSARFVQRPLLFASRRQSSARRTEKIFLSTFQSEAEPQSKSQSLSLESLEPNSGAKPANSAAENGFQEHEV
Excerpt: The human GPR39 cDNA vector was purchased from WZ Biosciences Inc., Shandong. It was cloned onto a lentiviral vector PLVXK-hGPR39-P2A-mCherry (FIG. 10) through PCR amplification using primers hGPR39-F (which sequence was shown as set forth in SEQshown as set forth in SEQ ID NO: 15) and hGPR39-R (which sequence was shown as set forth in SEQ shown as set forth in SEQ ID NO: 16), in which the sequence of the target gene human GPR39 cDNA was shown as set forth in SEQ shown as set forth in SEQ ID NO: 14. A cell line human GPR39-2 stably expressing human GPR39 gene was constructed according to the method of Example 1.

Row | EC50 ([2]; no added zinc ions, read-out: EC50 Only agonist) | SMILES | EC50 ([1]; Bile acid + 4 μM zinc ions EC50, m39-20 cells, 4 μM zinc ions) | intracellular calcium signals in m39-20 cell lines [1] | intracellular calcium signaling response in m39-20 cells ([1]; absence of zinc ions) | Only bile acid Efficacy ([1]; activation efficacy, m39-20 cells, no zinc ions) | change of activation efficacy after the addition of zinc ions ([1]; m39-20 cells, Table 1, FIG. 2) | activation capacity on GPR39 receptors among the bile acids ([1]; m39-20 cells, dose curves) | EC50 ([1]; m39-20 cells, no zinc ions, read-out: Only bile acid EC50) | EC50 ([1]; m39-20 cells, zinc ions 0 μM, read-out: EC50) | EC50 ([1]; m39-20 cells, zinc ions 0.05 μM, read-out: EC50) | EC50 ([1]; m39-20 cells, zinc ions 0.1 μM, read-out: EC50) | EC50 ([1]; m39-20 cells, zinc ions 0.2 μM, read-out: EC50) | EC50 ([1]; m39-20 cells, zinc ions 0.4 μM, read-out: EC50) | EC50 ([1]; m39-20 cells, zinc ions 1 μM, read-out: EC50) | EC50 ([1]; m39-20 cells, zinc ions 2 μM, read-out: EC50) | EC50 ([1]; m39-20 cells, zinc ions 4 μM, read-out: EC50) | EC50 ([2]; EC50 Agonist + 4 μM zinc ions, 4 μM zinc ions) | intracellular calcium signal response of human GPR39-2 ([2]; FIG. 9)
1 | – | C[C@H](CCC(=O)O)[C@H]1CC[C@H]2[C@@H]3CC[C@@H]4C[C@H](OS(=O)(=O)O)CC[C@]4(C)[C@H]3CC[C@]12C [LCAS] | 0.88 ± 0.16 µM | varying extents of intracellular calcium signals | strong intracellular calcium signaling response | 111.1 ± 3.9% | increases slightly | strongest activation capacity | 41 ± 4.5 µM | 31 ± 2.1 µM | 30.7 ± 2.4 µM | 30.6 ± 2 µM | 25.4 ± 1.1 µM | 20.1 ± 0.67 µM | 6.4 ± 0.67 µM | 1.9 ± 0.03 µM | 0.7 ± 0.03 µM | 0.97 ± 0.3 µM | capable of inducing intracellular calcium signal response
2 | 12 ± 2.8 µM | [Zn+2] [Zinc ions, reference compound] | – | inducing intracellular calcium signals | – | – | – | – | – | – | – | – | – | – | – | – | – | – | –
